{"source": "patent US7417025B2", "about": "“Use of poly-α2,8-sialic acid mimetic peptides to modulate NCAM functions” (Centre National de la Recherche Scientifique, priority 2002, dated 2008)", "key": {"MenB anti-PSA antibody": {"tested_on": "MenB anti-PSA antibody", "assay": "Competitive binding to PSA-NCAM expressing cells (MenB)", "description": "FIGS. 12B, 12C and 12D: competitive binding to PSA-NCAM expressing cells. B: pre-incubation of p65 (1 mM) or p66 (1 mM) with MenB anti-PSA antibody. C: 30H12 anti-PSA antibody without peptide. D: pre-incubation of p65 (1 mM) or p66 (1 mM) with 30H12 anti-PSA antibody.\nThe specificity of p65 and p66 peptides was tested in a competition assay using anti-PSA antibodies and PSA-NCAM expressing cells. […] The binding specificity was examined in greater detail by testing peptide recognition by another anti-PSA mononclonal antibody (MenB). […] Thus, p65 and p66 mimotopes appear to be specific for a unique (idiotypic) determinant."}, "mAb 735": {"tested_on": "mAb 735", "assay": "Competitive ELISA of biotinylated peptide-BSA conjugates on anti-PSA mAb", "type": "binding", "conditions": "for Binding of peptide to mAb 735 in competitive ELISA (percentage of binding): biotinylated peptide-BSA conjugate", "description": "• mAb 735 and 30H12 • MaxiSorp™ plates (NUNC) for coating the antibody: ELISA plates • microtiter plates (NUNC) for peptide dilution: dilution plates • Biotinylated peptide-BSA conjugates prepared as above described • Extravidin alkaline phosphatase-avidin conjugate (SIGMA E2636) • p-nitrophenyl-phosphatase alkaline substrate (SIGMA 104-105) 2.1.2) Buffers • PBS pH 7.4 • Blocking solution: 0.5% BSA in PBS • TBS • TBST: TBS containing 0.05% Tween 20 • Extravidin alkaline phosphatase-avidin conjugate solution: 1/5000 in TBST • Alkaline phosphatase substrate solution; 1 tablet in 5 ml 50 mM NaHCO3, 1 mM MgCl2 solution, […]) Method\nMaxisorp™ plate wells were coated with 100 μl mAb solution (25 μg/ml) for 2 h at room temperature. The control wells of the ELISA plates were only coated with the blocking solution. In parallel, the peptide-BSA conjugate dilution plates were blocked with 200 μl blocking solution for 2 h. The antibody coated wells and the control wells were blocked with 200 μl blocking solution for 1 h. In parallel the peptide-BSA conjugate dilution plates were washed 6 times with TBST and 120 μl TBST was added to the wells. An appropriate volume of peptide-BSA conjugate solution was added to the first well and the volume adjusted to 140 μl with TBST. The peptide-BSA conjugate in well one was diluted in the ratio 1/7 by taking 20 μl out of the first well and transferring into the second also to achieve the total volume of 140 μl. This was repeated for the remaining wells. The peptide-BSA conjugate dilutions for the control wells were done the same way. The blocked ELISA plates were washed 6 times with TBST and the peptide-BSA conjugate dilutions or 100 μl of the mixed competitor solution was added to the wells. After incubation for 1 h, the wells were washed 10 times with TBST and 100 μl of the alkaline phosphatase substrate solution was added to the wells. The plates were read out after 10 to 60 min using a microplate reader at 405 nm.\nThe specificity of peptide p21 (SEQ ID NO: 1) was investigated in a competition ELISA using biotinylated p21-BSA conjugate and a randomized variant of p21 (p22) conjugate as a control. The results presented in Tables X and XI are expressed as percentage of binding by comparison with peptide p21 at the highest concentration (9.45 10^-5 M) which corresponds to 100% binding."}, "[1]": {"conditions": "peptide-BSA conjugate, in words"}}, "data": [{"sequence": "CSSVTAWTTGCG [p65]", "values": [{"measurement": "Recognition of PSA-NCAM by MenB after pre-incubation with peptide", "setting": "MenB anti-PSA antibody; FIG. 12C", "value": "did not prevent recognition of PSA-NCAM"}, {"measurement": "Antibody specificity of peptide binding (30H12 versus MenB)", "setting": "MenB anti-PSA antibody; in words", "value": "bind only to 30H12"}]}, {"sequence": "DSPLVPFIDFHP [p21]", "values": [{"measurement": "Binding of peptide to mAb 735 in competitive ELISA (percentage of binding)", "setting": "mAb 735; peptide 1.62 10^−9 M, + chondroitin sulfate C", "value": "50 ± 1", "unit": "%"}, {"measurement": "Binding of peptide to mAb 735 in competitive ELISA (percentage of binding)", "setting": "mAb 735; peptide 1.62 10^−9 M, + colominic acid 1 mM", "value": "0 ± 1", "unit": "%"}, {"measurement": "Binding of peptide to mAb 735 in competitive ELISA (percentage of binding)", "setting": "mAb 735; peptide 1.62 10^−9 M, no competitor", "value": "56 ± 4", "unit": "%"}, {"measurement": "Binding of peptide to mAb 735 in competitive ELISA (percentage of binding)", "setting": "mAb 735; peptide 1.67 10^−5 M, + chondroitin sulfate C", "value": "99 ± 4", "unit": "%"}, {"measurement": "Binding of peptide to mAb 735 in competitive ELISA (percentage of binding)", "setting": "mAb 735; peptide 1.67 10^−5 M, + colominic acid 1 mM", "value": "34 ± 3", "unit": "%"}, {"measurement": "Binding of peptide to mAb 735 in competitive ELISA (percentage of binding)", "setting": "mAb 735; peptide 1.67 10^−5 M, no competitor", "value": "93 ± 10", "unit": "%"}, {"measurement": "Binding of peptide to mAb 735 in competitive ELISA (percentage of binding)", "setting": "mAb 735; peptide 2.86 10^−9 M, + chondroitin sulfate C", "value": "11 ± 2", "unit": "%"}, {"measurement": "Binding of peptide to mAb 735 in competitive ELISA (percentage of binding)", "setting": "mAb 735; peptide 2.86 10^−9 M, + colominic acid 1 mM", "value": "0 ± 0", "unit": "%"}, {"measurement": "Binding of peptide to mAb 735 in competitive ELISA (percentage of binding)", "setting": "mAb 735; peptide 2.86 10^−9 M, no competitor", "value": "13 ± 1", "unit": "%"}, {"measurement": "Binding of peptide to mAb 735 in competitive ELISA (percentage of binding)", "setting": "mAb 735; peptide 2.94 10^−6 M, + chondroitin sulfate C", "value": "99 ± 8", "unit": "%"}, {"measurement": "Binding of peptide to mAb 735 in competitive ELISA (percentage of binding)", "setting": "mAb 735; peptide 2.94 10^−6 M, + colominic acid 1 mM", "value": "23 ± 1", "unit": "%"}, {"measurement": "Binding of peptide to mAb 735 in competitive ELISA (percentage of binding)", "setting": "mAb 735; peptide 2.94 10^−6 M, no competitor", "value": "95 ± 1", "unit": "%"}, {"measurement": "Binding of peptide to mAb 735 in competitive ELISA (percentage of binding)", "setting": "mAb 735; peptide 5.04 10^−10 M, + chondroitin sulfate C", "value": "3 ± 0", "unit": "%"}, {"measurement": "Binding of peptide to mAb 735 in competitive ELISA (percentage of binding)", "setting": "mAb 735; peptide 5.04 10^−10 M, + colominic acid 1 mM", "value": "0 ± 0", "unit": "%"}, {"measurement": "Binding of peptide to mAb 735 in competitive ELISA (percentage of binding)", "setting": "mAb 735; peptide 5.04 10^−10 M, no competitor", "value": "2 ± 0", "unit": "%"}, {"measurement": "Binding of peptide to mAb 735 in competitive ELISA (percentage of binding)", "setting": "mAb 735; peptide 5.20 10^−7 M, + chondroitin sulfate C", "value": "94 ± 7", "unit": "%"}, {"measurement": "Binding of peptide to mAb 735 in competitive ELISA (percentage of binding)", "setting": "mAb 735; peptide 5.20 10^−7 M, + colominic acid 1 mM", "value": "15 ± 3", "unit": "%"}, {"measurement": "Binding of peptide to mAb 735 in competitive ELISA (percentage of binding)", "setting": "mAb 735; peptide 5.20 10^−7 M, no competitor", "value": "91 ± 2", "unit": "%"}, {"measurement": "Binding of peptide to mAb 735 in competitive ELISA (percentage of binding)", "setting": "mAb 735; peptide 8.89 10^−11 M, + chondroitin sulfate C", "value": "2 ± 0", "unit": "%"}, {"measurement": "Binding of peptide to mAb 735 in competitive ELISA (percentage of binding)", "setting": "mAb 735; peptide 8.89 10^−11 M, + colominic acid 1 mM", "value": "0 ± 0", "unit": "%"}, {"measurement": "Binding of peptide to mAb 735 in competitive ELISA (percentage of binding)", "setting": "mAb 735; peptide 8.89 10^−11 M, no competitor", "value": "0 ± 0", "unit": "%"}, {"measurement": "Binding of peptide to mAb 735 in competitive ELISA (percentage of binding)", "setting": "mAb 735; peptide 9.27 10^−8 M, + chondroitin sulfate C", "value": "92 ± 2", "unit": "%"}, {"measurement": "Binding of peptide to mAb 735 in competitive ELISA (percentage of binding)", "setting": "mAb 735; peptide 9.27 10^−8 M, + colominic acid 1 mM", "value": "5 ± 2", "unit": "%"}, {"measurement": "Binding of peptide to mAb 735 in competitive ELISA (percentage of binding)", "setting": "mAb 735; peptide 9.27 10^−8 M, no competitor", "value": "93 ± 9", "unit": "%"}, {"measurement": "Binding of peptide to mAb 735 in competitive ELISA (percentage of binding)", "setting": "mAb 735; peptide 9.45 10^−5 M, + chondroitin sulfate C", "value": "96 ± 8", "unit": "%"}, {"measurement": "Binding of peptide to mAb 735 in competitive ELISA (percentage of binding)", "setting": "mAb 735; peptide 9.45 10^−5 M, + colominic acid 1 mM", "value": "43 ± 3", "unit": "%"}, {"measurement": "Binding of peptide to mAb 735 in competitive ELISA (percentage of binding)", "setting": "mAb 735; peptide 9.45 10^−5 M, no competitor", "value": "100 ± 11", "unit": "%"}, {"measurement": "Binding of peptide to mAb 735", "setting": "mAb 735; [1]", "value": "binds specifically to mAb 735 in a concentration-dependent manner"}, {"measurement": "Effect of chondroitin sulfate C on peptide binding to mAb 735", "setting": "mAb 735; [1]", "value": "no influence"}, {"measurement": "Effect of colominic acid on peptide binding to mAb 735", "setting": "mAb 735; [1]", "value": "clear inhibition"}]}]}
